# Data reported in patent publication US8148367B2 (Takeda Pharmaceutical Company Limited, priority 2008, dated 2012).
# Biological target: T1, Recombinant human renin (Homo sapiens, UniProt P00797)
# T1 construct: isolate the active form (residues 67-406); made in house; host or cells: FreeStyle 293-F cells, transient expression of pcDNA3.1(+)/hREN
# T1 sequence (P00797 67-406): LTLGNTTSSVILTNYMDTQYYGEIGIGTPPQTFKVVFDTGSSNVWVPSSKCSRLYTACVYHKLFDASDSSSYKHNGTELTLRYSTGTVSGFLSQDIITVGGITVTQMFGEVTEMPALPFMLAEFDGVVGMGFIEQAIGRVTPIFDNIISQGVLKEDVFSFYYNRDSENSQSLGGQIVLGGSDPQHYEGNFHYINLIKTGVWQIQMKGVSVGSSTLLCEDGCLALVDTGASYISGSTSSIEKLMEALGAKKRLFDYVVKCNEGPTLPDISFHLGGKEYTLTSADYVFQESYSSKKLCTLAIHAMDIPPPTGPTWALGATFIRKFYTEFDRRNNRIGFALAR
# Test: In vitro enzymatic activity assay of renin inhibitors (fluorescence, QXL520/HiLyteFluo488 peptide substrate)
# Format: biochemical
# Details: recombinant human renin 3 nM, 1 μM substrate, pre-incubated 10 minutes at 37° C., incubation one hour, pH 7.4, 5% DMSO; read-out: IC50 of Exemplified Compounds Against Renin
row,SMILES,IC50
1,"COCCOc1ccccc1-n1c(-c2ccccc2)c(C(=O)N2CCNCC2)[nH]c1=O [Example 32, 1-(2-(2-Methoxyethoxy)phenyl)-5-phenyl-4-(piperazine-1-carbonyl)-1H-imidazol-2(3H)-one]",> 1 µM
2,"COc1cccc(-n2c(-c3ccccc3)c(C(=O)N3CCNC[C@H]3Cc3ccccc3)[nH]c2=O)c1OC [Example 112, (R)-4-(2-Benzylpiperazine-1-carbonyl)-1-(2,3-dimethoxyphenyl)-5-phenyl-1H-imidazol-2(3H)-one]",< 0.1 µM
3,"O=C(Nc1ccccc1-n1c(-c2ccccc2)c(C(=O)N2CCNC[C@H]2Cc2ccccc2)[nH]c1=O)c1ccccc1 [Example 124, (R)—N-(2-(4-(2-Benzylpiperazine-1-carbonyl)-2-oxo-5-phenyl-2,3-dihydro-1H-imidazol-1-yl)phenyl)benzamide]",< 0.1 µM
4,"CC(C)c1c(C(=O)N2CCNCC2)[nH]c(=O)n1-c1ccccc1 [Example 23, 5-Isopropyl-1-phenyl-4-(piperazine-1-carbonyl)-1H-imidazol-2(3H)-one]",> 1 µM
5,"CC1CN(C(=O)c2[nH]c(=O)n(C3CCCCC3)c2-c2ccccc2)C(C)CN1 (centres unmarked) [Example 41, 1-Cyclohexyl-4-(2,5-dimethylpiperazine-1-carbonyl)-5-phenyl-1H-imidazol-2(3H)-one]",> 1 µM
6,"COc1ccc(-c2cc(Cn3c(C(=O)N4CCNCC4)c(-c4ccccc4)n(C4CCCCC4)c3=O)cc(N(C)C)n2)cn1 [Example 17H, 1-cyclohexyl-3-((6-(dimethylamino)-6′-methoxy-2,3′-bipyridin-4-yl)methyl)-5-phenyl-4-(piperazine-1-carbonyl)-1H-imidazol-2(3H)-one]",0.1 to 0.5 µM
7,"O=C(c1[nH]c(=O)n(C2CCCCC2)c1-c1ccccc1)N1CCCNCC1 [Example 89, 1-Cyclohexyl-4-(1,4-diazepane-1-carbonyl)-5-phenyl-1H-imidazol-2(3H)-one]",> 1 µM
8,"COCCn1c(C(=O)N2CCNC[C@H]2Cc2ccccc2)c(-c2ccccc2)n(C2CCCCC2)c1=O [Example 66, (R)-4-(2-Benzylpiperazine-1-carbonyl)-1-cyclohexyl-3-(2-methoxyethyl)-5-phenyl-1H-imidazol-2(3H)-one]",< 0.1 µM
9,"CC(C)CC(=O)NCCCn1c(C(=O)N2CCNCC2)c(-c2ccccc2)n(C2CCCC[C@@H]2O)c1=O (stereo partly drawn) [Example 172, N-(3-(3-((2S)-2-Hydroxycyclohexyl)-2-oxo-4-phenyl-5-(piperazine-1-carbonyl)-2,3-dihydro-1H-imidazol-1-yl)propyl)-3-methylbutanamide]",> 1 µM
10,"CC(=O)N1CCCC(n2c(-c3ccccc3)c(C(=O)N3CCNCC3)[nH]c2=O)C1 (centres unmarked) [Example 94, 1-(1-Acetylpiperidin-3-yl)-5-phenyl-4-(piperazine-1-carbonyl)-1H-imidazol-2(3H)-one]",> 1 µM
11,"CCCCN1CCCc2ccc(-n3c(C4CC4)c(C(=O)N4CCNC[C@H]4Cc4ccccc4)[nH]c3=O)cc21 [Example 133, (R)-4-(2-Benzylpiperazine-1-carbonyl)-1-(1-butyl-1,2,3,4-tetrahydroquinolin-7-yl)-5-cyclopropyl-1H-imidazol-2(3H)-one]",> 1 µM
12,"CCN(CC)c1cc(Cn2c(C(=O)N3CCNCC3)c(-c3ccccc3)n(C3CCCCC3)c2=O)cc(-c2ccc(OC)nc2)n1 [Example 17J, 1-cyclohexyl-3-((6-(diethylamino)-6′-methoxy-2,3′-bipyridin-4-yl)methyl)-5-phenyl-4-(piperazine-1-carbonyl)-1H-imidazol-2(3H)-one]",0.1 to 0.5 µM
13,"COCCCOc1cccc(-n2c(-c3ccccc3)c(C(=O)N3CCNCC3)[nH]c2=O)n1 [Example 36, 1-(6-(3-Methoxypropoxy)pyridin-2-yl)-5-phenyl-4-(piperazine-1-carbonyl)-1H-imidazol-2(3H)-one]",> 1 µM
14,"O=C(c1c(-c2ccccc2)n([C@H]2CCCC[C@H]2O)c(=O)n1CC1CCCCC1)N1CCNCC1 [Example 157, 1-(Cyclohexylmethyl)-3-((1S,2R)-2-hydroxycyclohexyl)-4-phenyl-5-(piperazine-1-carbonyl)-1H-imidazol-2(3H)-one]",> 1 µM
15,"O=C(c1[nH]c(=O)n(C2CCCCC2)c1-c1ccccc1)N1CCNCC1 [Example 29, 1-Cyclohexyl-5-phenyl-4-(piperazine-1-carbonyl)-1H-imidazol-2(3H)-one]",0.5 to 1 µM

# Next, values leading:
row,IC50,SMILES
1,> 1 µM,"COc1ccccc1C(=O)NCCCn1c(C(=O)N2CCNCC2)c(-c2ccccc2)n(-c2ccccc2C)c1=O [Example 244, 2-Methoxy-N-(3-(2-oxo-4-phenyl-5-(piperazine-1-carbonyl)-3-o-tolyl-2,3-dihydro-1H-imidazol-1-yl)propyl)benzamide]"
2,> 1 µM,"Cc1ccccc1-n1c(-c2ccccc2)c(C(=O)N2CCNCC2)n(CCCNS(=O)(=O)C(C)C)c1=O [Example 239, N-(3-(2-oxo-4-phenyl-5-(piperazine-1-carbonyl)-3-o-tolyl-2,3-dihydro-1H-imidazol-1-yl)propyl)propane-2-sulfonamide]"
3,0.5 to 1 µM,"O=C(c1c(-c2ccccc2)n(-c2cccc(N3CCOCC3)c2)c(=O)n1Cc1ccc(F)c(F)c1)N1CCNCC1 [Example 190, 1-(3,4-Difluorobenzyl)-3-(3-morpholinophenyl)-4-phenyl-5-(piperazine-1-carbonyl)-1H-imidazol-2(3H)-one]"
4,> 1 µM,"Cc1ccccc1-n1c(-c2ccccc2)c(C(=O)N2CCNCC2)n(CCNC(=O)C(C)C)c1=O [Example 236, N-(2-(2-oxo-4-phenyl-5-(piperazine-1-carbonyl)-3-o-tolyl-2,3-dihydro-1H-imidazol-1-yl)ethyl)isobutyramide]"
5,> 1 µM,"C=CCn1c(C(=O)N2CCNCC2)c(-c2ccccc2)n(-c2ccccc2C)c1=O [Example 141, 1-Allyl-4-phenyl-5-(piperazine-1-carbonyl)-3-o-tolyl-1H-imidazol-2(3H)-one]"
6,> 1 µM,"O=C(c1c(-c2ccccc2)n(-c2ccccc2)c(=O)n1Cc1c[nH]cn1)N1CCNCC1 [Example 49, 1-((1H-Imidazol-4-yl)methyl)-3,4-diphenyl-5-(piperazine-1-carbonyl)-1H-imidazol-2(3H)-one]"
7,0.5 to 1 µM,"N#Cc1cccc(Cn2c(C(=O)N3CCNCC3)c(-c3ccccc3)n(-c3ccccc3)c2=O)c1 [Example 79, 3-((2-oxo-3,4-diphenyl-5-(piperazine-1-carbonyl)-2,3-dihydro-1H-imidazol-1-yl)methyl)benzonitrile]"
8,0.1 to 0.5 µM,"COc1cccc(S(=O)(=O)NCCCn2c(C(=O)N3CCNCC3)c(-c3ccccc3)n(-c3cccc(N4CCOCC4)c3)c2=O)c1 [Example 198, 3-Methoxy-N-(3-(3-(3-morpholinophenyl)-2-oxo-4-phenyl-5-(piperazine-1-carbonyl)-2,3-dihydro-1H-imidazol-1-yl)propyl)benzenesulfonamide]"
9,0.1 to 0.5 µM,"O=C(c1c(-c2ccccc2)n(-c2ccccc2)c(=O)n1Cc1ccc(Cl)c(OC(F)(F)F)c1)N1CCNCC1 [Example 87, 1-(4-Chloro-3-(trifluoromethoxy)benzyl)-3,4-diphenyl-5-(piperazine-1-carbonyl)-1H-imidazol-2(3H)-one]"
10,> 1 µM,"COc1cccc(S(=O)(=O)NCCn2c(C(=O)N3CCNCC3)c(-c3ccccc3)n(-c3ccccc3C)c2=O)c1 [Example 209, 3-Methoxy-N-(2-(2-oxo-4-phenyl-5-(piperazine-1-carbonyl)-3-o-tolyl-2,3-dihydro-1H-imidazol-1-yl)ethyl)benzenesulfonamide]"
11,0.5 to 1 µM,"Cc1ccccc1-n1c(-c2ccccc2)c(C(=O)N2CCNCC2)n(CCCNC(=O)Nc2ccccc2)c1=O [Example 223, 1-(3-(2-Oxo-4-phenyl-5-(piperazine-1-carbonyl)-3-o-tolyl-2,3-dihydro-1H-imidazol-1-yl)propyl)-3-phenylurea]"
12,> 1 µM,"O=C(c1cccc(Cn2c(C(=O)N3CCNCC3)c(-c3ccccc3)n(-c3cccc(N4CCOCC4)c3)c2=O)c1)N1CCOCC1 [Example 57, 1-(3-(Morpholine-4-carbonyl)benzyl)-3-(3-morpholinophenyl)-4-phenyl-5-(piperazine-1-carbonyl)-1H-imidazol-2(3H)-one]"
13,0.1 to 0.5 µM,"O=C(c1c(-c2ccccc2)n([C@@H]2CCCC[C@H]2O)c(=O)n1Cc1cccc(Oc2ccccc2)c1)N1CCNCC1 [Example 106, 1-((1R,2R)-2-Hydroxycyclohexyl)-3-(3-phenoxybenzyl)-5-phenyl-4-(piperazine-1-carbonyl)-1H-imidazol-2(3H)-one]"
14,0.1 to 0.5 µM,"COCCOc1cccc(Cn2c(C(=O)N3CCNCC3)c(-c3ccccc3)n(-c3ccccc3C)c2=O)c1 [Example 186, 1-(3-(2-Methoxyethoxy)benzyl)-4-phenyl-5-(piperazine-1-carbonyl)-3-o-tolyl-1H-imidazol-2(3H)-one]"
15,> 1 µM,"COCCCOc1cccc(-n2c(-c3ccccc3)c(C(=O)N3CCNCC3)n(CCCNC(=O)CC(C)C)c2=O)c1 [Example 181, N-(3-(3-(3-(3-Methoxypropoxy)phenyl)-2-oxo-4-phenyl-5-(piperazine-1-carbonyl)-2,3-dihydro-1H-imidazol-1-yl)propyl)-3-methylbutanamide]"
16,0.1 to 0.5 µM,"Cc1ccccc1-n1c(-c2ccccc2)c(C(=O)N2CCNCC2)n(Cc2cccc(OCCOc3ccccc3)c2)c1=O [Example 73, 1-(3-(2-Phenoxyethoxy)benzyl)-4-phenyl-5-(piperazine-1-carbonyl)-3-o-tolyl-1H-imidazol-2(3H)-one]"
17,0.1 to 0.5 µM,"Cc1ccccc1-n1c(-c2ccccc2)c(C(=O)N2CCNCC2)n(CCCNS(=O)(=O)c2ccccc2)c1=O [Example 162, N-(3-(2-oxo-4-Phenyl-5-(piperazine-1-carbonyl)-3-o-tolyl-2,3-dihydro-1H-imidazol-1-yl)propyl)benzenesulfonamide]"
